# Source: patent US7423020B2, “Treatment of mood disorders by administration of SMR1” (Institut Pasteur, priority 2001, dated 2008)
# Where “and” joins values, the source holds several entries; their conditions need not be identical. Identical values can stand only once. Entries after “also recorded” stand apart in the source; their conditions may differ. Where a SMILES comes first, the peptide text is derived from it.
# How the values were obtained:
# [1] = Tissue uptake of SMR1-Pentapeptide in vivo; design: species or system rat
# NEP = target: T1, NEP (Rattus norvegicus, UniProt P07861); assay: 3H-Substance P hydrolysis by rat spinal cord membrane preparations; type: biochemical
# T1 construct: incubations of membrane and fresh tissue slice preparations from nervous tissues; from tissue; host or cells: rat spinal cord (dorsal zone), fresh slices or 100 000 x g membrane fraction
# T1 sequence (P07861 1-750): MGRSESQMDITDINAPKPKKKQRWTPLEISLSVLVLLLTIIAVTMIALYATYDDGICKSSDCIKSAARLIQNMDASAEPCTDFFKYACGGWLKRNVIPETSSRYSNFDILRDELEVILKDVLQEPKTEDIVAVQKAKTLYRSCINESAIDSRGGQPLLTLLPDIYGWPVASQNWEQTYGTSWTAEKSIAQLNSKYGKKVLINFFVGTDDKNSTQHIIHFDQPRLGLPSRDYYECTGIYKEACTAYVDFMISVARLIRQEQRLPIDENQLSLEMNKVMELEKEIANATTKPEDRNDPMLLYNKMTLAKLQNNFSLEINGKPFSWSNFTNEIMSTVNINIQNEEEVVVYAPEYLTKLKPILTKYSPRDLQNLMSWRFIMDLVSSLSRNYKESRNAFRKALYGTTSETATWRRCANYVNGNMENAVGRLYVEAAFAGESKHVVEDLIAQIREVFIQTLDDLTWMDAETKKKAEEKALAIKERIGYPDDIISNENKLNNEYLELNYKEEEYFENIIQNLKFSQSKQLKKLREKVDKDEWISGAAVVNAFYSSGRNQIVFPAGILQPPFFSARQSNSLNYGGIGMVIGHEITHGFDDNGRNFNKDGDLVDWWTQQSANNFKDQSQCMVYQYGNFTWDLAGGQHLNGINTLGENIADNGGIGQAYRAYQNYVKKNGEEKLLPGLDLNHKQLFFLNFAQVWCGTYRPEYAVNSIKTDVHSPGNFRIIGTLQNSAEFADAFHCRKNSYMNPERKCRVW
# Method: The organs dissected out and washed in ice-cold KRBG are homogenized at 4° C. in 10 volumes (vol./wt.) of 50 mM Tris/HCl buffered at pH 7.2, using a Teflon-glass homogenizer (3×5 sec.). A first centrifugation of 5 min. at 1000×g and 4° C. makes it possible to remove the tissular debris and the nuclei in the pellet. A second centrifugation of the supernatant at 100 000×g and 5° C. concentrates the membrane fraction into the pellet, which will be superficially washed three times with cold Tris/HCl buffer and resuspended in fresh buffer using a Kontes homogenizer, aliquoted and stored at -80° C. while waiting to be used as enzyme source, at least until three months. For the experiments of analysis of the NEP peptidase activity, an ex vivo model using incubations of membrane and fresh tissue slice preparations from nervous tissues that are known to be appropriate for exploring NEP peptidase activity: i.e. the dorsal zone of rat spinal cord, was first developed. The metabolism rate of the NEP-sensitive peptides was measured using the both NEP substrates involved in the signaling of the nociceptive response: the neuropeptides Met-enkephalin and Substance P. […] (NEN, 12.5-25 nM) were used. The objective was to measure the NEP-specific endoproteolysis of these substrates. […] The radioactivity of eluted and isolated compounds is determined by liquid scintillation spectrometry.
# male Wistar/AF EOPS rats = assay: Behavioral despair test (forced swimming); type: in vivo, rat
# Method: Forty male Wistar/AF EOPS rats (Iffa-Credo Breeding Centre, 69-St-Germain sur l'Arbresle, France), weighing 300 to 320 g, were used. On arrival, the rats were labelled and distributed randomly in pairs into type F polycarbonate cages (48×27×20 cm, U.A.R., 91-Epinay-Sur-Orge, France). The animals were stabled in an air-conditioned animal house, at a temperature of 22-24° C. The rats were given food (M25 croquettes, Ets Pietrement, 77-Provins, France) and drink ad libitum and were subjected to a 12-hour light-darkness cycle.
# After one week of familiarization with the laboratory conditions, the rats were weighed and distributed randomly into 3 treatment groups (n=12). The rats of the different groups will all be handled in the same way and under the same conditions.
# The behavioral despair test takes place over two sessions: • a 15-minute test session; • a 5-minute retest session, performed 24 hours later.
# During the test session, the rat was subjected to forced swimming in a Plexiglas cylinder (20 cm in diameter and 50 cm in height, containing 25 cm of water at 25° C.) and its behavior was recorded over 15 minutes. At the end of the test, the rat was removed from the water, dried gently, treated and then returned to its dwelling cage.
# During the retest, 24 hours later, the rat was again placed in the water and its behavior was recorded over 5 minutes.
# The recorded variables are the period of immobility during the first 5 minutes of both the test and the retest.
# The peptide FG-005 (SMR1-QHNPR) (SEQ ID NO: 1) was suspended at a rate of 500 μg per 5 ml of 0.01N acetic acid, and then diluted with PBS to be administered at doses of 50 and 100 μg/kg via the i.v. route into the dorsal caudal vein of the rat, immediately after the test and 300 and 5 minutes before the retest the following day.
# A bilateral probability paired t test was used to compare the two periods of immobility of the test with those of the retest in each of the groups. The results are expressed as an average ±standard error of mean (SEM)(FIG. 4). The statistical and graphical processing was performed using Statview5 and DeltaGraph® Pro 3.5 software.
smiles,measurement,setting,value
"N=C(N)NCCC[C@H](NC(=O)[C@@H]1CCCN1C(=O)[C@H](CC(N)=O)NC(=O)[C@H](Cc1c[nH]cn1)NC(=O)[C@@H](N)CCC(N)=O)C(=O)O [SMR1-QHNPR, QHNPR] (H-QHNPR-OH; N-terminus and C-terminus assumed)",stability of tissue uptake,[1],pharmacokinetically and biochemically stable in vivo
same,IC50,"NEP; 3H-Substance P 12.5 nM, 10 min at 25° C., read-out: IC50 (concentration reducing by half the degradation of 3H-substance P) (converted)",~0.1 µM and 0.1 µM
same,protection of Substance P / NEP inhibitory potency compared with reference inhibitors,NEP; FIG. 3-B,"equivalent to that obtained with Phosphoramidon; also recorded: equivalent to that of two well-known NEP-specific inhibitors, Thiorphan and Phosphoramidon"
same,overall effect in the behavioral despair test,"male Wistar/AF EOPS rats; FG-005 50 and 100 μg/kg i.v., 8-OH-DPAT as reference substance",antidepressant effect
same,"change of period of immobility, retest compared with test",male Wistar/AF EOPS rats; dose of 50 μg/kg,increase their period of immobility during the retest
same,"change of period of immobility, retest compared with test","male Wistar/AF EOPS rats; doses of 50 and 100 μg/kg, i.v., immediately after the test and 300 and 5 minutes before the retest",do not increase their periods of immobility during the retest
